What all share (type): physicochemical
The nature of series [1]: Stability in pH 3 buffer assessed as rate constant of compound hydrolysis at 37 degC by 31P NMR analysis.
Series [2] can be described thus: Stability in pH 7.4 buffer assessed as compound hydrolysis measured over 8 hrs at 37 degC by 31P NMR analysis. Particulars: pH 7.4, 8 h.
A short description of series [3]: Stability in pH 7.4 buffer assessed as rate constant of compound hydrolysis at 37 degC by 31P NMR analysis.
Series [4] in a line: Stability in pH 3 buffer assessed as half life at 37 degC by 31P NMR analysis.
Series [5] in a line: Stability in pH 7.4 buffer assessed as half life at 37 degC by 31P NMR analysis. Particulars: for half-life: pH 7.4 buffer.

What is called half-life is the time needed for the level to fall by half in the phase considered.

On to `CCOC(=O)[C@@H](NC(C)=O)[C@@H](C)OP(=O)([O-])N[C@@H](Cc1ccc(O)c(O)c1)C(=O)[O-].[K+].[K+]`, for which the results for the K in series [1] and in series [3] were 1.2 ×10⁻¹ /hr and “Stable”, respectively. Moreover, the Stability result in series [2] is listed as “Stable”. Also, the half-life was 5.5 h in series [4] and above 8 h in series [5].
For `O=C([O-])CCOP(=O)([O-])N[C@@H](Cc1ccc(O)c(O)c1)C(=O)[O-].[K+].[K+].[K+]`, the K entry in series [1] and in series [3] was “Unstable” each time. In addition, the half-life in series [4] and in series [5] was below 0.0833 h each time.
For `CC(=O)N[C@H](C(=O)[O-])[C@@H](C)OP(=O)([O-])N[C@@H](Cc1ccc(O)c(O)c1)C(=O)[O-].[K+].[K+].[K+]`, the results for the K result in series [1] and in series [3] were “Unstable” and 7.2 ×10⁻¹ /hr, respectively. In addition, the values for the half-life in series [4] and in series [5] were below 0.0833 h and 0.92 h, respectively.
As for `CC(=O)N[C@@H](COP(=O)([O-])N[C@@H](Cc1ccc(O)c(O)c1)C(=O)[O-])C(=O)[O-].[K+].[K+].[K+]`, the K entry in series [1] is recorded as “Unstable”; in series [3], 7 ×10⁻² /hr. The half-life in series [4] was below 0.0833 h. In series [5] (buffer), the t1/2 came to 9.9 h.
Regarding `O=C([O-])CCCOP(=O)([O-])N[C@@H](Cc1ccc(O)c(O)c1)C(=O)[O-].[K+].[K+].[K+]`, the K in series [1] is 5.4 ×10⁻¹ /hr; in series [3], “Stable”. In series [2], the Stability entry is recorded as “Stable”. Further, the values for the half-life in series [4] and in series [5] were 1.2 h and above 8 h, respectively.
For the compound `CC(=O)NCCOP(=O)([O-])N[C@@H](Cc1ccc(O)c(O)c1)C(=O)[O-].[K+].[K+]`, the figures for the K in series [1] and in series [3] were 4 ×10⁻¹ /hr and “Stable”, respectively. The Stability result in series [2] is “Stable”. Also, the half-life in series [4] is 1.7 h; in series [5] it was above 8 h.
As to `CC(=O)N[C@@H](COP(=O)([O-])NCCc1ccc(O)c(O)c1)C(=O)[O-].[K+].[K+]`, the K result in series [1] is “Unstable”; in series [3], 5.7 ×10⁻² /hr. The results for the half-life in series [4] and in series [5] were below 0.0833 h and 12.1 h, respectively.
In the case of `CCOC(=O)CCOP(=O)([O-])N[C@@H](Cc1ccc(O)c(O)c1)C(=O)[O-].[K+].[K+]`, the K is 4 ×10⁻¹ /hr in series [1] and “Stable” in series [3]. Besides, the Stability result in series [2] is reported as “Stable”. In addition, the half-life in series [4] was 1.7 h; in series [5] it was above 8 h.
Turning to `CCOC(=O)[C@H](COP(=O)([O-])N[C@@H](Cc1ccc(O)c(O)c1)C(=O)[O-])NC(C)=O.[K+].[K+]`, the K in series [1] is 2.5 ×10⁻¹ /hr; in series [3], “Stable”. The Stability entry in series [2] is recorded as “Stable”. In addition, the half-life in series [4] is 2.7 h; in series [5], above 8 h.
